Experimental data taken from ChEMBL document CHEMBL1201862, “PubChem BioAssay data set” (2004).
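96-well plates; 48 h exposure; 5 concentrations. Endpoints by linear interpolation between flanking doses. Not reached: highest tested concentration assigned. The concentration for 50% growth inhibition is given as GI50.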 Calls of active or inactive are those of the source. No stated cut-off is given here; in the data, active = GI50 up to about 1.1 µM and inactive = higher.

What was measured:
Assay in all cases: DTP human tumour cell line panel, 48 h
HOP-92 = system: HOP-92
UACC-62 = system: UACC-62
COLO 205 = system: COLO 205
KM12 = system: KM12
NCI-H522 = system: NCI-H522
OVCAR-8 = system: OVCAR-8
SF-295 = system: SF-295
A498 = system: A498
K562 = system: K562
CCRF-CEM = system: CCRF-CEM
HL-60 = system: HL-60
SK-MEL-28 = system: SK-MEL-28
ACHN = system: ACHN
LOX IMVI = system: LOX IMVI
Malme-3M = system: Malme-3M
SNB-75 = system: SNB-75
MDA-N = system: MDA-N
Hs-578T = system: Hs-578T
MCF7 = system: MCF7
SR = system: SR

Structure (SMILES) | GI50 (HOP-92) | GI50 (UACC-62) | GI50 (COLO 205) | GI50 (KM12) | GI50 (NCI-H522) | GI50 (OVCAR-8) | GI50 (SF-295) | GI50 (A498) | GI50 (K562) | GI50 (CCRF-CEM) | GI50 (HL-60) | GI50 (SK-MEL-28) | GI50 (ACHN) | GI50 (LOX IMVI) | GI50 (Malme-3M) | GI50 (SNB-75) | GI50 (MDA-N) | GI50 (Hs-578T) | GI50 (MCF7) | GI50 (SR)
COc1ccc(OC)c(N(CN2C(=O)CCC2C(=O)O)C(C)=O)c1 (stereo unspecified) | > 100 µM (inactive) | > 100 µM (inactive) | > 100 µM (inactive) | > 100 µM (inactive) | > 100 µM (inactive) | > 100 µM (inactive) | > 100 µM (inactive) | > 100 µM (inactive) | > 100 µM (inactive) | > 100 µM (inactive) | > 100 µM (inactive) | > 100 µM (inactive) | > 100 µM (inactive) | > 100 µM (inactive) | > 100 µM (inactive) | > 100 µM (inactive) | > 100 µM (inactive) | > 100 µM (inactive) | > 100 µM (inactive) | > 100 µM (inactive)
COc1ccc(-c2oc3c(OC)c(OC)c(OC)c(OC)c3c(=O)c2OC)cc1OC [3,5,6,7,8,3',4'-HEPTAMETHOXYFLAVONE] | 0.0481 µM (active) | 48.3 µM (inactive) | 65.6 µM (inactive) | 47.5 µM (inactive) | 19.4 µM (inactive) | 23.6 µM (inactive) | 32 µM (inactive) | 31 µM (inactive) | 31.5 µM (inactive) | 25.6 µM (inactive) | 14.1 µM (inactive) | 66.7 µM (inactive) | 33.5 µM (inactive) | 27 µM (inactive) | 28 µM (inactive) |  | 27.6 µM (inactive) | 20.9 µM (inactive) | 21.3 µM (inactive) | 19.1 µM (inactive)
Cc1ccc(C2=Nn3c(nc4sc5c(c4c3=O)CCCC5)SC2)cc1 | > 100 µM (inactive) | > 100 µM (inactive) | > 100 µM (inactive) | > 100 µM (inactive) | > 100 µM (inactive) | > 100 µM (inactive) | > 100 µM (inactive) | > 100 µM (inactive) | > 100 µM (inactive) | > 100 µM (inactive) | > 100 µM (inactive) | > 100 µM (inactive) | > 100 µM (inactive) | > 100 µM (inactive) | > 100 µM (inactive) | 96.4 µM (inactive) | > 100 µM (inactive) | 35.7 µM (inactive) | > 100 µM (inactive) | > 100 µM (inactive)
O=C(O)C1OC(n2cc(F)c(=O)[nH]c2=O)CC1O (stereo unspecified) | 7.13 µM (inactive) | 6.15 µM (inactive) | 61.5 µM (inactive) | > 95.9 µM (inactive) | 25.9 µM (inactive) | 17.5 µM (inactive) | 5.47 µM (inactive) | 10.1 µM (inactive) | > 86.1 µM (inactive) | 3.44 µM (inactive) | 30.8 µM (inactive) | 53.1 µM (inactive) | 2.46 µM (inactive) | 8.87 µM (inactive) | > 100 µM (inactive) | 6.11 µM (inactive) | > 97.3 µM (inactive) | > 78.7 µM (inactive) | 0.9 µM (active) | 6.11 µM (inactive)
Cc1nc2sc3ccccc3n2c(=O)c1/N=N/c1ccc(Br)cc1 | 76.4 µM (inactive) | > 100 µM (inactive) | > 100 µM (inactive) | > 100 µM (inactive) | 38.5 µM (inactive) | > 100 µM (inactive) | > 100 µM (inactive) | 43.3 µM (inactive) | 81.1 µM (inactive) | 77.8 µM (inactive) | 81.8 µM (inactive) | > 100 µM (inactive) | > 100 µM (inactive) | 54.8 µM (inactive) | > 100 µM (inactive) | > 100 µM (inactive) | > 100 µM (inactive) | 67.5 µM (inactive) | 81.3 µM (inactive) | 82.6 µM (inactive)
O=c1cc(NNc2ccccc2F)[nH]c(=O)[nH]1 | 15.7 µM (inactive) | 17.1 µM (inactive) | 19.2 µM (inactive) | 15.3 µM (inactive) | 16.2 µM (inactive) |  |  | 59.8 µM (inactive) | 21.8 µM (inactive) | 17.5 µM (inactive) | 11.9 µM (inactive) | 20.5 µM (inactive) | 18.3 µM (inactive) | 16 µM (inactive) | 18.8 µM (inactive) | 25.9 µM (inactive) | 18.5 µM (inactive) | 21.9 µM (inactive) | 6.61 µM (inactive) | 1.35 µM (inactive)
CCOC(=O)C1=C(C)N(Cc2ccccc2)C2(O)C=CC(=O)C3C(=O)N(c4ccccc4)C(=O)C132 (stereo unspecified) | 2.24 µM (inactive) | 1.71 µM (inactive) | 1.51 µM (inactive) | 1.99 µM (inactive) | 1.57 µM (inactive) | 1.23 µM (inactive) | 3.58 µM (inactive) | 14.5 µM (inactive) | 3.66 µM (inactive) | 0.735 µM (active) | 1.99 µM (inactive) | 1.82 µM (inactive) | 1.63 µM (inactive) | 1.36 µM (inactive) | 2.81 µM (inactive) |  | 3.61 µM (inactive) | 5.4 µM (inactive) | 2.25 µM (inactive) | 1.01 µM (active)
